In a compilation of properties of binary mixtures (doi:10.1021/acs.jced.1c00387):

Test: xn = mol fraction of the nth substance listed
Conditions: 81.5 kPa

CC(=O)[O-].CC[n+]1ccn(C)c1 + OCCNCCO
x2 = 0
Conditions	viscosity [mPa·s]
323.15 K	39.4
343.15 K	19.3
353.15 K	14.6

OCCNCCO + CC(=O)[O-].CC[n+]1ccn(C)c1
viscosity [mPa·s]
Conditions	293.15 K	303.15 K	313.15 K	323.15 K	333.15 K	343.15 K	353.15 K
x1 = 0.2	202	–	–	41.2	28.3	20.4	15.3
x1 = 0.4	197	108	65.2	42.4	–	21.2	15.9
x1 = 0.6	214	–	68.6	43.9	29.8	21.3	–
x1 = 0.8	–	175	95.6	56.8	36.1	24.4	–
x1 = 1	–	–	191	102	58.2	35.5	23

CC(=O)[O-].CC[n+]1ccn(C)c1 + CC(C)(N)CO
x2 = 0
Conditions	viscosity [mPa·s]
293.15 K	204
303.15 K	106
313.15 K	61.6
323.15 K	39.4
333.15 K	26.8
343.15 K	19.3
353.15 K	14.6

CC(C)(N)CO + CC(=O)[O-].CC[n+]1ccn(C)c1
viscosity [mPa·s]
Conditions	293.15 K	303.15 K	313.15 K	323.15 K	333.15 K	343.15 K	353.15 K
x1 = 0.2	198	104	60.3	38.3	26	18.6	13.5
x1 = 0.4	136	74.9	45.5	29.9	20.9	–	11.7
x1 = 0.6	94.7	–	33.2	–	15.7	–	8.8
x1 = 0.8	–	–	29.3	18.6	–	–	6.8
x1 = 1	–	–	54.4	25.5	14.6	9.2	5.9

CC(=O)[O-].CC[n+]1ccn(C)c1 + CN(CCO)CCO
viscosity [mPa·s]
Conditions	293.15 K	303.15 K	313.15 K	323.15 K	333.15 K	343.15 K	353.15 K
x2 = 0	204	106	61.6	39.4	–	19.3	–
x2 = 0.2	193	105	63.5	41.3	28.6	20.7	15.7
x2 = 0.4	–	96	59.8	–	28.1	20.6	15.6
x2 = 0.6	128	76.2	48.8	33.2	23.6	17.5	13.4
x2 = 0.8	109	61.5	39.1	26.4	18.7	13.7	–

CN(CCO)CCO + CC(=O)[O-].CC[n+]1ccn(C)c1
x1 = 1
Conditions	viscosity [mPa·s]
303.15 K	58
323.15 K	22.1
333.15 K	14.9
343.15 K	10.4
353.15 K	7.4
